Data taken from publication PMC10268634 (ACS Omega, 2023).

What was measured:
[1] = DPPH radical scavenging; conditions: for IC50: read-out: DPPH (IC50 value in μM)
[2] = target: T1, α-amylase (Homo sapiens, UniProt P04746); assay: biochemical
T1 sequence (P04746 16-511): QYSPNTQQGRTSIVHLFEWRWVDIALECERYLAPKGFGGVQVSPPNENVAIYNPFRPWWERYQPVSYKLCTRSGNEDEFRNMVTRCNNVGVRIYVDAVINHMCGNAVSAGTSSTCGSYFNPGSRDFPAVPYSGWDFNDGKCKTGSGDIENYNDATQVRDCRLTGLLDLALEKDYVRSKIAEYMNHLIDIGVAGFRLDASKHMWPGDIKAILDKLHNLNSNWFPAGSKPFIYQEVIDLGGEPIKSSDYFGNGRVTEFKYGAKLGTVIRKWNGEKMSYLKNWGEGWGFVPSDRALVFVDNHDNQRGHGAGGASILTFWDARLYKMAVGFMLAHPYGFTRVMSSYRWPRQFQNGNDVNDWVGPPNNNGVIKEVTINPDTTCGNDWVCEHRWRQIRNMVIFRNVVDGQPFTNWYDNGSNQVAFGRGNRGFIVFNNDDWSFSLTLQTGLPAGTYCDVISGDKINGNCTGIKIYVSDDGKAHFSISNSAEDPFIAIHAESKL

SMILES | DPPH (IC50 value in μM) [1] | IC50 [1] | IC50 [2]
CC(=O)N1N=C(c2ccccc2)CC1c1ccccc1O (stereo not drawn) [Compound 1, 1-(5-(2-Hydroxyphenyl)-3-phenyl-4,5-dihydro-1H-pyrazol-1-yl)ethanone] | potential antioxidant activity | 84.2 µM | 188 µM
CC(=O)N1N=C(c2ccccc2)CC1c1ccc(C)cc1 (stereo not drawn) [Compound 5, 1-(3-Phenyl-5-(p-tolyl)-4,5-dihydro-1H-pyrazol-1-yl)ethanone] | potential antioxidant activity | 30 µM | 35.5 µM
COc1ccc(C2=NN(C(C)=O)C(c3ccco3)C2)cc1 (stereo not drawn) [Compound 6, 1-(5-(Furan-2-yl)-3-(4-methoxyphenyl)-4,5-dihydro-1H-pyrazol-1-yl)ethanone] | – | 554 µM | 811 µM
CC(=O)N1N=C(c2ccc(O)cc2)CC1c1ccccn1 (stereo not drawn) [Compound 7, 1-(3-(4-Hydroxyphenyl)-5-(pyridin-2-yl)-4,5-dihydro-1H-pyrazol-1-yl)ethanone] | potential antioxidant activity | 69 µM | 196 µM
CC(=O)N1N=C(c2ccc(O)cc2)CC1c1cccc([N+](=O)[O-])c1 (stereo not drawn) [Compound 9, 1-(3-(4-Hydroxyphenyl)-5-(3-nitrophenyl)-4,5-dihydro-1H-pyrazol-1-yl)ethanone] | – | 161 µM | 632 µM
COc1ccc(C2CC(c3ccc(Cl)cc3)=NN2C(C)=O)cc1 (stereo not drawn) [Compound 13, 1-(3-(4-Chlorophenyl)-5-(4-methoxyphenyl)-4,5-dihydro-1H-pyrazol-1-yl)ethanone] | potential antioxidant activity | 131 µM | –
CC(=O)N1N=C(c2ccc(Cl)cc2)CC1c1ccc(C)cc1 (stereo not drawn) [Compound 14, 1-(3-(4-Chlorophenyl)-5-(p-tolyl)-4,5-dihydro-1H-pyrazol-1-yl)ethanone] | – | 179 µM | –
CC(=O)N1N=C(c2ccc(Cl)cc2)CC1c1ccccn1 (stereo not drawn) [Compound 18, 1-(3-(4-Chlorophenyl)-5-(pyridin-2-yl)-4,5-dihydro-1H-pyrazol-1-yl)ethanone] | – | 199 µM | 281 µM
CC(=O)N1N=C(c2ccc(Cl)cc2)CC1c1ccccc1 (stereo not drawn) [Compound 19, 1-(3-(4-Chlorophenyl)-5-phenyl-4,5-dihydro-1H-pyrazol-1-yl)ethanone] | – | 172 µM | –
CC(=O)N1N=C(c2ccc(Cl)cc2)CC1c1cccc([N+](=O)[O-])c1 (stereo not drawn) [Compound 22, 1-(3-(4-Chlorophenyl)-5-(3-nitrophenyl)-4,5-dihydro-1H-pyrazol-1-yl)ethanone] | – | 220 µM | 61.5 µM

Continued by falling IC50 [1], values first:

DPPH (IC50 value in μM) [1] | IC50 [1] | IC50 [2] | SMILES
– | 914 µM | 663 µM | CC(=O)N1N=C(c2ccccc2)CC1c1ccccn1 (stereo not drawn) [Compound 4, 1-(3-Phenyl-5-(pyridin-2-yl)-4,5-dihydro-1H-pyrazol-1-yl)ethanone]
– | 580 µM | 262 µM | CC(=O)N1N=C(c2ccc(Cl)cc2)CC1c1ccco1 (stereo not drawn) [Compound 21, 1-(3-(4-Chlorophenyl)-5-(furan-2-yl)-4,5-dihydro-1H-pyrazol-1-yl)ethanone]
– | 383 µM | 425 µM | CC(=O)N1N=C(c2ccc(Cl)cc2)CC1c1cccs1 (stereo not drawn) [Compound 15, 1-(3-(4-Chlorophenyl)-5-(thiophen-2-yl)-4,5-dihydro-1H-pyrazol-1-yl)ethanone]
– | 205 µM | 604 µM | CC(=O)N1N=C(c2ccccc2)CC1c1cccc([N+](=O)[O-])c1 (stereo not drawn) [Compound 3, 1-(5-(3-Nitrophenyl)-3-phenyl-4,5-dihydro-1H-pyrazol-1-yl)ethanone]
– | 160 µM | 315 µM | CC(=O)N1N=C(c2ccc(Cl)cc2)CC1c1cccc(O)c1 (stereo not drawn) [Compound 17, 1-(3-(4-Chlorophenyl)-5-(3-hydroxyphenyl)-4,5-dihydropyrazol-1-yl)ethanone]
potential antioxidant activity | 151 µM | 400 µM | CC(=O)N1N=C(c2ccc(O)cc2)CC1c1ccc(C)cc1 (stereo not drawn) [Compound 12, 1-(3-(4-Hydroxyphenyl)-5-(p-tolyl)-4,5-dihydro-1H-pyrazol-1-yl)ethanone]
potential antioxidant activity | 106 µM | 1.07 µM | CC(=O)N1N=C(c2ccc(O)cc2)CC1c1ccco1 (stereo not drawn) [Compound 8, 1-(5-(Furan-2-yl)-3-(4-hydroxyphenyl)-4,5-dihydro-1H-pyrazol-1-yl)ethanone]
potential antioxidant activity | 99.6 µM | 590 µM | CC(=O)N1N=C(c2ccc(Cl)cc2)CC1c1ccccc1O (stereo not drawn) [Compound 20, 1-(3-(4-Chlorophenyl)-5-(2-hydroxyphenyl)-4,5-dihydro-1H-pyrazol-1-yl)ethanone]
potential antioxidant activity | 85.1 µM | 301 µM | CC(=O)N1N=C(c2ccccc2)CC1c1ccco1 (stereo not drawn) [Compound 2, 1-(5-(Furan-2-yl)-3-phenyl-4,5-dihydro-1H-pyrazol-1-yl)ethanone]
– | 56.3 µM | 62.5 µM | COc1ccc(C2CC(c3ccc(Cl)cc3)=NN2C(C)=O)cc1O (stereo not drawn) [Compound 16, 1-(3-(4-Chlorophenyl)-5-(3-hydroxy-4-methoxyphenyl)-4,5-dihydropyrazol-1-yl)ethanone]
potential antioxidant activity | 53.5 µM | 0.551 µM | COc1ccc(C2CC(c3ccc(O)cc3)=NN2C(C)=O)cc1 (stereo not drawn) [Compound 11, 1-(3-(4-Hydroxyphenyl)-5-(4-methoxyphenyl)-4,5-dihydro-1H-pyrazol-1-yl)ethanone]
potential antioxidant activity | 41.1 µM | 388 µM | CC(=O)N1N=C(c2ccc(O)cc2)CC1c1ccc(N(C)C)cc1 (stereo not drawn) [Compound 10, 1-(5-(4-(Dimethylamino)phenyl)-3-(4-hydroxyphenyl)-4,5-dihydropyrazol-1-yl)ethanone]
